The text below walks through data of patent publication US10987359B2, “Oxadiazepinone derivatives and methods of treating hepatitis B infections” (priority 2016, dated 2021).

In the first experiment the test system is HBV. Put plainly: HBV replication inhibition assay (BDNA assay) in HepG2.2.15 cells. In kind it is cell-based. The note with it: HBV replication assay (BDNA assay), HepG2.2.15 cells; read-out: DNA EC50. In a few lines: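 HepG2.2.15 cells with stably integrated HBV were treated with serially diluted compounds at 0.5% DMSO for 6 days, with medium and compound refreshed at day 3. Encapsidated HBV DNA from DNase-treated supernatant was quantified by branched DNA assay. EC50 came from % inhibition versus DMSO, fitted non-linearly.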
`CC(=O)NCC1Cn2nc3c(c2C(=O)N(C)O1)CN(C(=O)Nc1ccc(F)c(C#N)c1)[C@H](C)C3` (single isomer, unassigned) [Compound 176_D1, (4S*,9R)-4-(acetamidomethyl)-N-(3-cyano-4-fluorophenyl)-2,9-dimethyl-1-oxo-1,4,5,8,9,11-hexahydropyrido[4′,3′:3,4]pyrazolo[5,1-d][1,2,5]oxadiazepine-10(2H)-carboxamide]: the EC50 – broadly, the concentration giving half of the maximal effect – was in the range of 100 to 500 nM.
For the molecule `CC(=O)NCC1Cn2nc3c(c2C(=O)N(C)O1)CN(C(=O)Nc1ccc(F)c(C#N)c1)[C@H](C)C3` (single isomer, unassigned) [Compound 176_D2, (4R*,9R)-4-(acetamidomethyl)-N-(3-cyano-4-fluorophenyl)-2,9-dimethyl-1-oxo-1,4,5,8,9,11-hexahydropyrido[4′,3′:3,4]pyrazolo[5,1-d][1,2,5]oxadiazepine-10(2H)-carboxamide], the half-maximal effective concentration (EC50) lay within 1 to 100 nM.
Same read-out and setting: next, `CC(=O)NCC1Cn2nc3c(c2C(=O)N(C)O1)CN(C(=O)Nc1ccc(F)c(C(F)(F)F)c1)[C@H](C)C3` (single isomer, unassigned) [Compound 177_D2, (4R*,9R)-4-(acetamidomethyl)-N-(4-fluoro-3-(trifluoromethyl)phenyl)-2,9-dimethyl-1-oxo-1,4,5,8,9,11-hexahydropyrido[4′,3′:3,4]pyrazolo[5,1-d][1,2,5]oxadiazepine-10(2H)-carboxamide]: 1 to 100 nM.

Still in this experiment, the particulars now being: Hepatitis B virus, HepG2.2.15, HBV replication assay (BDNA assay), HepG2.2.15 cells; read-out: DNA EC50.
On to `CC(=O)NCC1Cn2nc3c(c2C(=O)N(C)O1)CN(C(=O)Nc1ccc(F)c(C(F)(F)F)c1F)CC3` (single isomer, unassigned) [Compound 172_E1, (S*)-4-(acetamidomethyl)-N-(2,4-difluoro-3-(trifluoromethyl)phenyl)-2-methyl-1-oxo-1,4,5,8,9,11-hexahydropyrido[4′,3′:3,4]pyrazolo[5,1-d][1,2,5]oxadiazepine-10(2H)-carboxamide], for which the EC50 was 1 to 100 nM.
For `CC(=O)NCC1Cn2nc3c(c2C(=O)N(C)O1)CN(C(=O)Nc1cc(Cl)c(F)cc1F)CC3` (single isomer, unassigned) [Compound 173_E1, (S*)-4-(acetamidomethyl)-N-(5-chloro-2,4-difluorophenyl)-2-methyl-1-oxo-1,4,5,8,9,11-hexahydropyrido[4′,3′:3,4]pyrazolo[5,1-d][1,2,5]oxadiazepine-10(2H)-carboxamide], the concentration for a half-maximal effect (EC50) is 1 to 100 nM.
On to `CC(=O)NCC1Cn2nc3c(c2C(=O)N(C)O1)CN(C(=O)Nc1cc(Br)c(F)cc1F)CC3` (single isomer, unassigned) [Compound 174_E1, (S*)-4-(acetamidomethyl)-N-(5-bromo-2,4-difluorophenyl)-2-methyl-1-oxo-1,4,5,8,9,11-hexahydropyrido[4′,3′:3,4]pyrazolo[5,1-d][1,2,5]oxadiazepine-10(2H)-carboxamide], for which the EC50 fell in the range of 1 to 100 nM.
On to `CC(=O)NCC1Cn2nc3c(c2C(=O)N(C)O1)CN(C(=O)Nc1ccc(F)c(C(F)(F)F)c1)CC3` (single isomer, unassigned) [Compound 175_E1, (S*)-4-(acetamidomethyl)-N-(4-fluoro-3-(trifluoromethyl)phenyl)-2-methyl-1-oxo-1,4,5,8,9,11-hexahydropyrido[4′,3′:3,4]pyrazolo[5,1-d][1,2,5]oxadiazepine-10(2H)-carboxamide], for which the EC50 lay within 1 to 100 nM.
As for `CC(=O)NCC1Cn2nc3c(c2C(=O)N(C)O1)CN(C(=O)Nc1ccc(F)c(C(F)(F)F)c1)[C@H](C)C3` (single isomer, unassigned) [Compound 177_D1, (4S*,9R)-4-(acetamidomethyl)-N-(4-fluoro-3-(trifluoromethyl)phenyl)-2,9-dimethyl-1-oxo-1,4,5,8,9,11-hexahydropyrido[4′,3′:3,4]pyrazolo[5,1-d][1,2,5]oxadiazepine-10(2H)-carboxamide], the 50% effective concentration (EC50) fell in the range of 1 to 100 nM.
